Measurements: US8067424B2, “Selective inhibitors for cyclin-dependent kinases” (Emory University, priority 2007, dated 2011)
Like-named read-outs stand apart in the source and are kept apart here.

Assays:
HIPK3 = HIPK3 (Homo sapiens, UniProt Q9H422); assay: Kinase screen: HIPK3 assay; format: biochemical; details: read-out: Mean Remaining Enzyme Activity (%)
Description: (§1) Generally, the same procedure was used for all assays. Since the total assay volume was 25.5 microliters, 0.5 microliters of inhibitors at 51× assay concentration were added to the plates before any other addition.
(§2) The basic procedure was to add 0.5 microliters inhibitor/control in DMSO to plate. Fifteen microliters of enzyme/substrate/buffer mix were added and incubated for 5 min. Ten microliters MgATP at the relevant concentration were added and incubated for 30 min. The assay was stopped by adding 5 microliters of 3% orthophosphoric acid. The assay was transferred to a p81 filter plate and read in a scintillation counter of 30 sec/well. Note that this assay procedure was not followed for MKK1, which instead involved a two-step assay, and PKC alpha, which required the addition of lipid vesicles.
(§3) HIPK3 assay: 5-20 mU of HIPK3 (diluted in 50 mM Tris (pH 7.5), 0.1 mM EGTA, 1 mg/ml BSA, 0.1%, b-Mercaptoethanol) was assayed against MBP in a final volume of 25.5 μl containing 50 mM Tris (pH 7.5), 0.1 mM EGTA, 0.1%, b-Mercaptoethanol, 0.33 mg/ml MBP, 10 mM magnesium acetate and 0.02 mM [33P-g-ATP] (500-1000 cpm/pmole) and incubated for 30 mins at room temperature. Assays were stopped by addition of 5 μl of 0.5M (3%) orthophosphoric acid. Assays were harvested onto P81 Unifilter plates using a wash buffer of 50 mM orthophosphoric acid.

MAPKAP-K3 = MAPKAP-K3 (Homo sapiens, UniProt Q16644); assay: Kinase screen: MAPKAP-K3 assay; format: biochemical; details: read-out: Mean Remaining Enzyme Activity (%)
Description: as §1, §2
as §3, with “MAPKAP-K3” for “HIPK3”, “substrate peptide ([…]) (SEQ ID NO: 3)” for “MBP”, “30 μM substrate peptide,” for “0.33 mg/ml MBP,”

[1] = tested on: RNA polymerase II phosphorylation (P-Ser-2, P-Ser-5); assay: Inhibition of phosphorylation of RNA polymerase II (immunoblot, MCF-7 cells); format: cell-based; details: MCF-7 cells treated 4 hours
Description: MCF-7 breast cancer cells were treated with BS-181 or Roscovitine at the concentrations shown in FIG. 2 for 4 hours prior to harvesting of cells. […] Immunblotting for β-actin was used as loading control for protein content.

BT-549 = assay: cells; details: Homo sapiens
HL-60(TB) = assay: cells; details: Homo sapiens
HOP-92 [2] = tested on: HOP-92
MDA-MB-435 = assay: cells; details: Homo sapiens
COLO 205 = assay: cells; details: Homo sapiens
HOP-92 [3] = assay: cells; details: Homo sapiens
MALME-3M = details: for Mean Optical Densities / Percent Growth: MALME-3M
ACHN = details: for Mean Optical Densities / Percent Growth: ACHN
CAKI-1 = assay: cells; details: Homo sapiens
[4] = NCI-H522, log10 concentration −4.0
[5] = NCI-H522, log10 concentration −5.0
[6] = NCI-H522, log10 concentration −6.0
[7] = NCI-H522, log10 concentration −7.0
[8] = NCI-H522, log10 concentration −8.0
[9] = HOP-92, log10 concentration −4.0
[10] = HOP-92, log10 concentration −5.0
[11] = HOP-92, log10 concentration −6.0
[12] = HOP-92, log10 concentration −7.0
[13] = HOP-92, log10 concentration −8.0
[14] = SK-MEL-5, log10 concentration −4.0
[15] = SK-MEL-5, log10 concentration −5.0
[16] = SK-MEL-5, log10 concentration −6.0
[17] = SK-MEL-5, log10 concentration −7.0
[18] = SK-MEL-5, log10 concentration −8.0

Sequence of HIPK3 (Q9H422 whole entry, species assumed): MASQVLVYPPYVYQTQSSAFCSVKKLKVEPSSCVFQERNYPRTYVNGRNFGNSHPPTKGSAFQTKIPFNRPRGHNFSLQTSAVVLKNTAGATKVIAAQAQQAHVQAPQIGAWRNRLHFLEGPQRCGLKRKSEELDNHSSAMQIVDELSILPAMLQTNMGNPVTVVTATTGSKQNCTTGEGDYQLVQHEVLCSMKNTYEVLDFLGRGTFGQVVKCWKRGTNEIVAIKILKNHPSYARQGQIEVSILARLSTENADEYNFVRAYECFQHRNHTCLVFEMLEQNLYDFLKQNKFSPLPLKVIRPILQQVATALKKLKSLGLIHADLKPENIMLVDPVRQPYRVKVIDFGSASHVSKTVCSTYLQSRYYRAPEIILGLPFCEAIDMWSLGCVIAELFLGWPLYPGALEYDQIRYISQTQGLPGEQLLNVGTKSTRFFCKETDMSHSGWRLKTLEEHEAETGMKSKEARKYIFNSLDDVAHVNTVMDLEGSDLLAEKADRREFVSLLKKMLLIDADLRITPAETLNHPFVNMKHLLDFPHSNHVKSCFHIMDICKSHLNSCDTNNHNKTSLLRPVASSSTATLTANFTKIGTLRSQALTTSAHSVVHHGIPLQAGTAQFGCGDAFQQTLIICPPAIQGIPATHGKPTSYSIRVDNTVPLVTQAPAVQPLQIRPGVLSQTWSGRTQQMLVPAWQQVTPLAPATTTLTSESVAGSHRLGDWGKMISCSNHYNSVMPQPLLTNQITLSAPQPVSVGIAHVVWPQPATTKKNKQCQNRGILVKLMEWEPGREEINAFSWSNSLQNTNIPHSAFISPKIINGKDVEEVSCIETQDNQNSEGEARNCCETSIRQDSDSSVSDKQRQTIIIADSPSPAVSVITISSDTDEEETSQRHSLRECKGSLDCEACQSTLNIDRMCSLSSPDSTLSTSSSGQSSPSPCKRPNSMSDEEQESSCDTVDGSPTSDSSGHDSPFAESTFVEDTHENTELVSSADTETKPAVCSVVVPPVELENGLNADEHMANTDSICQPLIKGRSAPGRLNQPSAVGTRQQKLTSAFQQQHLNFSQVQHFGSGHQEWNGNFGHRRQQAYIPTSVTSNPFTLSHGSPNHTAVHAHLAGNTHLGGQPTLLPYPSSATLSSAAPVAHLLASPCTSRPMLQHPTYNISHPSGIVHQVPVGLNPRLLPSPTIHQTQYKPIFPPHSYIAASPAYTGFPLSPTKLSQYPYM
Sequence of MAPKAP-K3 (Q16644 whole entry, species assumed): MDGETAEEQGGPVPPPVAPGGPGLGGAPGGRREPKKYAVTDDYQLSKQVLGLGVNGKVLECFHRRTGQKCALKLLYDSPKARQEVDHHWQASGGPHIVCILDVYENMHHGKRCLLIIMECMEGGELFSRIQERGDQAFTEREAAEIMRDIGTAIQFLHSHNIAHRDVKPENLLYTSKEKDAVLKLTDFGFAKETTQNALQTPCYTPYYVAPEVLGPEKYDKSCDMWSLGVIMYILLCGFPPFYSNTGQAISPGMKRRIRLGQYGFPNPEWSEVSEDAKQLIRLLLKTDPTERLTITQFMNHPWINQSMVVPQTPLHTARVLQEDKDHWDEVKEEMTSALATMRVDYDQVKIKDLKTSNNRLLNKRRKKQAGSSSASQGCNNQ

## CC(C)c1cnn2c(NCc3ccccc3)cc(NCCCCCCCN)nc12 [BS-181]
HIPK3
  remaining activity at 10 µM: 90%
MAPKAP-K3
  remaining activity at 10 µM: 119%
[1]
  Inhibition of phosphorylation of RNA polymerase II: capable of inhibiting phosphorylation of RNAPolymerase II

## CC(C)c1cnn2c(NCc3ccccc3)cc(N[C@@H](CO)[C@H](O)CO)nc12 [ICEC0318, (3S)-3-(7-(Benzylamino)-3-isopropylpyrazolo[1,5-a]pyrimidin-5-ylamino)butane-1,2,4-triol]
BT-549; BT-549
  GI50: 258 nM
BT-549; BT-549, read-out: LC50
  CC50: > 100000 nM
NCI-H522; NCI-H522 (Non-Small Cell Lung Cancer)
  TGI: 2.13E−6
NCI-H522; [4]
  Mean Optical Densities: 0.741
  Percent Growth: −17%
NCI-H522; [5]
  Mean Optical Densities: 0.640
  Percent Growth: −29%
NCI-H522; [6]
  Mean Optical Densities: 1.075
  Percent Growth: 14%
NCI-H522; [7]
  Mean Optical Densities: 2.156
  Percent Growth: 99%
NCI-H522; [8]
  Mean Optical Densities: 2.185
  Percent Growth: 101%
HL-60(TB); HL-60
  GI50: 166 nM
HL-60(TB); HL-60, read-out: LC50
  CC50: > 100000 nM
HOP-92 [2]; HOP-92 (Non-Small Cell Lung Cancer)
  TGI: >1.00E−4
HOP-92 [2]; [9]
  Mean Optical Densities: 0.594
  Percent Growth: 12%
HOP-92 [2]; [10]
  Mean Optical Densities: 0.612
  Percent Growth: 16%
HOP-92 [2]; [11]
  Mean Optical Densities: 0.645
  Percent Growth: 22%
HOP-92 [2]; [12]
  Mean Optical Densities: 0.981
  Percent Growth: 86%
HOP-92 [2]; [13]
  Mean Optical Densities: 1.050
  Percent Growth: 99%
SK-MEL-5; SK-MEL-5 (Melanoma)
  TGI: 5.33E−7
SK-MEL-5; [14]
  Mean Optical Densities: 0.260
  Percent Growth: −58%
SK-MEL-5; [15]
  Mean Optical Densities: 0.275
  Percent Growth: −56%
SK-MEL-5; [16]
  Mean Optical Densities: 0.427
  Percent Growth: −31%
SK-MEL-5; [17]
  Mean Optical Densities: 2.036
  Percent Growth: 82%
SK-MEL-5; [18]
  Mean Optical Densities: 2.375
  Percent Growth: 102%
MDA-MB-435; MDA-MB-435
  GI50: 309 nM
MDA-MB-435; MDA-MB-435, read-out: LC50
  CC50: > 100000 nM
COLO 205; COLO 205
  GI50: 147 nM
COLO 205; COLO 205, read-out: LC50
  CC50: 993 nM
HOP-92 [3]; HOP-92
  GI50: 369 nM
HOP-92 [3]; HOP-92, read-out: LC50
  CC50: > 100000 nM
MALME-3M; MALME-3M (Melanoma)
  TGI: 1.09E−6
MALME-3M; log10 concentration −4.0
  Mean Optical Densities: 0.398
  Percent Growth: −29%
MALME-3M; log10 concentration −5.0
  Mean Optical Densities: 0.458
  Percent Growth: −19%
MALME-3M; log10 concentration −6.0
  Mean Optical Densities: 0.565
  Percent Growth: 1%
MALME-3M; log10 concentration −7.0
  Mean Optical Densities: 1.008
  Percent Growth: 126%
MALME-3M; log10 concentration −8.0
  Mean Optical Densities: 0.958
  Percent Growth: 112%
ACHN; ACHN (Renal Cancer)
  TGI: >1.00E−4
ACHN; log10 concentration −4.0
  Mean Optical Densities: 0.343
  Percent Growth: 5%
ACHN; log10 concentration −5.0
  Mean Optical Densities: 0.347
  Percent Growth: 5%
ACHN; log10 concentration −6.0
  Mean Optical Densities: 0.358
  Percent Growth: 6%
ACHN; log10 concentration −7.0
  Mean Optical Densities: 1.080
  Percent Growth: 75%
ACHN; log10 concentration −8.0
  Mean Optical Densities: 1.302
  Percent Growth: 96%
CAKI-1; CAKI-1
  GI50: 249 nM
CAKI-1; CAKI-1, read-out: LC50
  CC50: > 100000 nM
